These results are taken from patent publication US20140273093A1, “METHODS OF PRODUCING ANTIBODIES IN YEAST” (BRISTOL-MYERS SQUIBB COMPANY, priority 2013, published 2014).

This experiment has as its system P. pastoris. Description: P. pastoris fed-batch fermentation Run 01MAY11: effects of hydroxyurea on cell growth and anti-IL-6 antibody productivity. It is filed as cell-based, Pichia pastoris. Conditions: for Sup Titer / WCW / WB Titer: Lots T5, T6 & T10; for Sup Titer / WB Titer: hydroxyurea 2.6-2.8 g/L; for WCW: hydroxyurea 2.6-2.8 g/L added 5 hours after feed start; for WB Titer: calculated from supernatant titer and WCW. As for the experimental part:
The glucose and ethanol were measured by YSI 2700 (YSI Incorporated, Yellow Springs, Ohio), O2 and CO2 of the exhaust line were measured by Questor GP Process Mass Spectrometer (ABB Extrel, Pittsburg, Pa.) and the RQ value was calculated using below Equation [1]. The wet cell weight (WCW) was measured by centrifuging 1 milliliter (mL) fermentation broth at 13,200 rpm for 10 minutes, weighing pellet, and calculated ratio of pellets weight (g) over volume (mL). The supernatant titer (g/L) was measured by the HPLC method and the whole broth (WB) titer was then calculated by below Equation [2].
WB_Titer=Supernatant_Titer*(1−WCW/1000)
The treatment cultures were operated the same way plus adding hydroxyurea 5 hours after feed start.

Take `NC(=O)NO` [Hydroxyurea]: the “average whole broth titer” value (90 hours run time, three hydroxyurea treatment lots, control 59.8) was determined as 75 normalized units. Under “Age 59 h”, the “Sup Titer” value was 83.9 ± 2.2 Normalized, the WCW came out at 437 ± 17 g/kg and the “WB Titer” value is 47.2 ± 1.8 Normalized. Under “Age 90 h”, the “Sup Titer” value is 123.3 ± 5.8 Normalized, the WCW amounted to 392 ± 20 g/kg and the “WB Titer” value was 75.0 ± 2.7 Normalized. Where the note is “after peak cell density at 30-40 hours, control lots ~400 g/Kg”, the “WCW reached/maintained by hydroxyurea treatment lots” value is given as about 450 g/kg.
